# pIC50: −log10 of the molar value.
# Target: T1, Dimer of Gag-Pol polyprotein [489-587] (Human immunodeficiency virus 1, UniProt P12497)
# T1 construct: 489-587
# Experiment: Protease Inhibition Assay
# Conditions: pH 5.5; 30 °C
# Method: Sensitivity of HIV-1 protease activity to protease inhibitors was determined by a peptide substrate cleavage assay. Protease products were analyzed on a reverse-phase high-pressure liquid chromatograph.
row,SMILES,pIC50
1,"CCC(C)C(NC(=O)[C@H](Cc1ccccc1)C[C@H](O)[C@H](Cc1ccccc1)NC(=O)OC(C)(C)C)C(=O)NCc1nc2ccccc2[nH]1 (stereo partly drawn) [tert-butyl N-[(2S,3S,5R)-5-({1-[(1H-1,3-benzodiazol-2-ylmethyl)carbamoyl]-2-methylbutyl}carbamoyl)-5-benzyl-3-hydroxy-1-phenylpentan-2-yl]carbamate]",10.15
2,"CCC(C)C(NC(=O)[C@H](C/C=C/c1ccccc1)C[C@H](O)[C@H](Cc1ccccc1)NC(=O)OC(C)(C)C)C(=O)NCc1nc2ccccc2[nH]1 (stereo partly drawn) [tert-butyl N-[(2S,3S,5R)-5-({1-[(1H-1,3-benzodiazol-2-ylmethyl)carbamoyl]-2-methylbutyl}carbamoyl)-3-hydroxy-1-phenyl-5-[(2E)-3-phenylprop-2-en-1-yl]pentan-2-yl]carbamate]",10.52

# Reference: BindingDB's records for doi:10.1021/jm00107a050 (Merck Research Laboratories, 1991)
